Laboratory results as given in patent US20120309739A1, “AKT / PKB INHIBITORS” (ALMAC DISCOVERY LIMITED, priority 2009, published 2012).
Structures can show the parent of a compound that is named as a salt.

What was measured:
Assay type in all cases: biochemical
AKT3 = biological target: T1, AKT3 (Homo sapiens, UniProt Q9Y243); test: AKT Kinase Assay (IMAP fluorescent polarisation) vs AKT3; conditions: activated AKT3, FAM Crosstide substrate
T1 construct: purchased SignalChem
Procedure, shortened: (§1)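 Each activated AKT isoform, at a pre-determined linear-range concentration, was pre-incubated 45 min at room temperature with compound in a fourteen-point half-log series. ATP plus 5′FAM-Crosstide then reacted 1 h; IMAP binding reagent stopped it (1 h). Fluorescence polarisation (ex 485/em 528 nm) versus vehicle gave IC50 by non-linear regression.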

AKT2 = biological target: T2, AKT2 (Homo sapiens, UniProt P31751); test: AKT Kinase Assay (IMAP fluorescent polarisation) vs AKT2; conditions: activated AKT2, FAM Crosstide substrate
T2 construct: purchased SignalChem
Procedure, shortened: as §1

AKT1 = biological target: T3, AKT1 (Homo sapiens, UniProt P31749); test: AKT Kinase Assay (IMAP fluorescent polarisation) vs AKT1; conditions: activated AKT1, FAM Crosstide substrate
T3 construct: purchased SignalChem
Procedure, shortened: as §1

T3 sequence (P31749 whole entry): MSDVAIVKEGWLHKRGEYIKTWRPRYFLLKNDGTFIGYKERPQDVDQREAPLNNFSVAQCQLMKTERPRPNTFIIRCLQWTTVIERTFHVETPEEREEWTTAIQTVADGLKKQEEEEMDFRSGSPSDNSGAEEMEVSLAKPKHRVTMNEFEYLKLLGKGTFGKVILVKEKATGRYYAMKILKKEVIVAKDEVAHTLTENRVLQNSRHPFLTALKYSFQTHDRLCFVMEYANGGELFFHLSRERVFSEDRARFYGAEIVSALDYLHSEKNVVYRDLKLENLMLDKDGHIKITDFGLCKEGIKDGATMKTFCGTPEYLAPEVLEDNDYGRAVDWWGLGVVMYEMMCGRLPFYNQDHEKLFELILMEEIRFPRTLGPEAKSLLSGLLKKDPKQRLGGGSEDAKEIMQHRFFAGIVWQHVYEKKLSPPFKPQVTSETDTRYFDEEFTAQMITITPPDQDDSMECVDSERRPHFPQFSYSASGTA
T1 sequence (Q9Y243 whole entry): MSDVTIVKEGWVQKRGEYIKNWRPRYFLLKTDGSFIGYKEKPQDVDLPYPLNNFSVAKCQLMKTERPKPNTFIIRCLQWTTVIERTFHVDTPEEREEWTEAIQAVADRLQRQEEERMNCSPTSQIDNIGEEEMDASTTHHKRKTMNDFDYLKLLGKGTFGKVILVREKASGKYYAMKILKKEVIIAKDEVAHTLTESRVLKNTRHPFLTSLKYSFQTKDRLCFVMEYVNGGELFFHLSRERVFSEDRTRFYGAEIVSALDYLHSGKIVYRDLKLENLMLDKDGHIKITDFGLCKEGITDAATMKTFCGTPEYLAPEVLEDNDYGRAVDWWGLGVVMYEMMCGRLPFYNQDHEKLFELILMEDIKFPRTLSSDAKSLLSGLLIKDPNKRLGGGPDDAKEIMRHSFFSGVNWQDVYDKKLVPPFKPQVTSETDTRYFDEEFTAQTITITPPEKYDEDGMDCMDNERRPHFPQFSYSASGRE
T2 sequence (P31751 whole entry): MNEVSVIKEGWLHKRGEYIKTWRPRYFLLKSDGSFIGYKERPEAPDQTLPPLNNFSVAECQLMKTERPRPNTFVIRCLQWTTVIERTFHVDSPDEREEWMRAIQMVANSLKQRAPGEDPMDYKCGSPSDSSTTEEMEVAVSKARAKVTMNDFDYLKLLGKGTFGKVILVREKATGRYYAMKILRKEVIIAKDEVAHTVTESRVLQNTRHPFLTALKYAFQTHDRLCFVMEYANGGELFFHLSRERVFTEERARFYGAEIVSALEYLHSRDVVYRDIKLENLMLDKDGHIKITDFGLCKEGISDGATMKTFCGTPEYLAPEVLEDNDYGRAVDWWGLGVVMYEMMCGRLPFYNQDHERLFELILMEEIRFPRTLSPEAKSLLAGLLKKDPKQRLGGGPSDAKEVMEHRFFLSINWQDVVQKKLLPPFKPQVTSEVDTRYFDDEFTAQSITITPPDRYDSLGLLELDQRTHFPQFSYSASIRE

| IC50 (AKT3) [nM] | IC50 (AKT2) [nM] | IC50 (AKT1) [nM] | SMILES |
| --- | --- | --- | --- |
| 1000 to 10000 | ≤ 100 | 1000 to 10000 | NC1(c2ccc(-c3oc4ncn(CC(F)F)c(=O)c4c3-c3ccccc3)cc2)CCC1 [Example 108, 6-(4-(1-Aminocyclobutyl)phenyl)-3-(2,2-difluoroethyl)-5-phenylfuro[2,3-d]pyrimidin-4(3H)-one] |
| > 10000 | ≤ 100 | 1000 to 10000 | NC1(c2ccc(-c3oc4ccn(CC(F)(F)F)c(=O)c4c3-c3ccccc3)cc2)CCC1 [Example 109, 2-(4-(1-Aminocyclobutyl)phenyl)-3-Phenyl-5-(2,2,2-trifluoroethyl)furo[3,2-c]pyridin-4(5H)-one, HCl] |
| 1000 to 10000 | ≤ 100 | 1000 to 10000 | NC1(c2ccc(-c3oc4nc(NCCO)n(CCF)c(=O)c4c3-c3ccccc3)cc2)CCC1 [Example 110, 6-(4-(1-Aminocyclobutyl)phenyl)-3-(2-fluoroethyl)-2-(2-hydroxyethylamino)-5-phenylfuro[2,3-d]pyrimidin-4(3H)-one] |
| 1000 to 10000 | 100 to 1000 | ≤ 100 | NC1(c2ccc(-c3oc4nc(NCCO)nc(OCCF)c4c3-c3ccccc3)cc2)CCC1 [Example 111, 2-((6-(4-(1-Aminocyclobutyl)phenyl)-4-(2-fluoroethoxy)-5-phenylfuro[2,3-d]pyrimidin-2-yl)amino)ethanol] |
| > 10000 | ≤ 100 | 100 to 1000 | NC1(c2ccc(-c3oc4c(Br)cn(CCF)c(=O)c4c3-c3ccccc3)cc2)CCC1 [Example 112] |
| 1000 to 10000 | 100 to 1000 | 100 to 1000 | Cn1cc(-c2cn(CCF)c(=O)c3c(-c4ccccc4)c(-c4ccc(C5(N)CCC5)cc4)oc23)cn1 [Example 113, 2-(4-(1-Aminocyclobutyl)phenyl)-5-(2-fluoroethyl)-7-(1-methyl-1H-pyrazol-4-yl)-3-phenylfuro[3,2-d]pyridin-4(5H)-one] |
| 1000 to 10000 | 100 to 1000 | 100 to 1000 | Cn1cc(-c2cn(C)c(=O)c3c(-c4ccccc4)c(-c4ccc(C5(N)CCC5)cc4)oc23)cn1 [Example 114, 2-(4-(1-Aminocyclobutyl)phenyl)-5-methyl-7-(1-methyl-1H-pyrazol-4-yl)-3-phenylfuro[3,2-c]pyridin-4(5H)-one] |
| > 10000 | 1000 to 10000 | 100 to 1000 | Cn1cc(-c2cncnc2)c2oc(-c3ccc(C4(N)CCC4)cc3)c(-c3ccccc3)c2c1=O [Example 115, 2-(4-(1-Aminocyclobutyl)phenyl)-5-methyl-3-phenyl-7-(pyrimidin-5-yl)furo[3,2-c]pyridin-4(5H)-one] |
| > 10000 | 100 to 1000 | ≤ 100 | Cn1cc(-c2ccn[nH]2)c2oc(-c3ccc(C4(N)CCC4)cc3)c(-c3ccccc3)c2c1=O [Example 116, 2-(4-(1-Aminocyclobutyl)phenyl)-5-methyl-3-phenyl-7-(1H-pyrazol-5-yl)furo[3,2-c]pyridin-4(5H)-one] |
| 1000 to 10000 | 100 to 1000 | 100 to 1000 | Cn1cc(C(N)=O)c2oc(-c3ccc(C4(N)CCC4)cc3)c(-c3ccccc3)c2c1=O [Example 117, 2-(4-(1-Aminocyclobutyl)phenyl)-5-methyl-4-oxo-3-phenyl-4,5-dihydrofuro[3,2-c]pyridine-7-carboxamide] |
| 1000 to 10000 | 100 to 1000 | ≤ 100 | COC(=O)c1cn(C)c(=O)c2c(-c3ccccc3)c(-c3ccc(C4(N)CCC4)cc3)oc12 [Example 118, Methyl 2-(4-(1-aminocyclobutyl)phenyl)-5-methyl-4-oxo-3-phenyl-4,5-dihydrofuro[3,2-c]pyridine-7-carboxylate] |
| > 10000 | 100 to 1000 | 100 to 1000 | CNC(=O)c1cn(C)c(=O)c2c(-c3ccccc3)c(-c3ccc(C4(N)CCC4)cc3)oc12 [Example 119, 2-(4-(1-Aminocyclobutyl)phenyl)-N,5-dimethyl-4-oxo-3-phenyl-4,5-dihydrofuro[3,2-c]pyridine-7-carboxamide] |
| > 10000 | 100 to 1000 | 100 to 1000 | Cn1cc(C(=O)NCCO)c2oc(-c3ccc(C4(N)CCC4)cc3)c(-c3ccccc3)c2c1=O [Example 120, 2-(4-(1-Aminocyclobutyl)phenyl)-N-(2-hydroxyethyl)-5-methyl-4-oxo-3-phenyl-4,5-dihydrofuro[3,2-c]pyridine-7-carboxamide] |
| 1000 to 10000 | ≤ 100 | 100 to 1000 | NC1(c2ccc(-c3oc4nc(NCCO)n(CC(F)(F)F)c(=O)c4c3-c3ccccc3)cc2)CCC1 [Example 121, 6-(4-(1-Aminocyclobutyl)phenyl)-2-((2-hydroxyethyl)amino)-5-phenyl-3-(2,2,2-trifluoroethyl)furo[2,3-d]pyrimidin-4(3H)-one] |
| 1000 to 10000 | ≤ 100 | 100 to 1000 | CNc1nc2oc(-c3ccc(C4(N)CCC4)cc3)c(-c3ccccc3)c2c(=O)n1CC(F)(F)F [Example 122, 6-(4-(1-Aminocyclobutyl)phenyl)-2-(methylamino)-5-phenyl-3-(2,2,2-trifluoroethyl)furo[2,3-d]pyrimidin-4(3H)-one] |
| 1000 to 10000 | ≤ 100 | 100 to 1000 | Cc1nc2oc(-c3ccc(C4(N)CCC4)cc3)c(-c3ccccc3)c2c(=O)n1CC(F)(F)F [Example 123, 6-(4-(1-Aminocyclobutyl)phenyl)-2-methyl-5-phenyl-3-(2,2,2-trifluoroethyl)furo[2,3-d]pyrimidin-4(3H)-one] |
| > 10000 | 100 to 1000 | 100 to 1000 | Cn1c(=O)[nH]c2oc(-c3ccc(C4(N)CCC4)cc3)c(-c3ccccc3)c2c1=O [Example 124, 6-(4-(1-Aminocyclobutyl)phenyl)-3-methyl-5-phenylfuro[2,3-d]pyrimidine-2,4(1H,3H)-dione hydrochloride] |
| > 10000 | 1000 to 10000 | 100 to 1000 | Cn1c(=O)c2c(-c3ccccc3)c(-c3ccc(C4(N)CCC4)cc3)oc2n(C)c1=O [Example 125, 6-(4-(1-Aminocyclobutyl)phenyl)-1,3-dimethyl-5-phenylfuro[2,3-d]pyrimidine-2,4(1H,3H)-dione] |
| > 10000 | 100 to 1000 | 100 to 1000 | COc1nccc2c(-c3ccccc3)c(-c3ccc(C4(N)CCC4)cc3)oc12 [Example 126, 1-(4-(7-Methoxy-3-phenylfuro[2,3-c]pyridin-2-yl)phenyl)cyclobutanamine] |
| > 10000 | 1000 to 10000 | > 10000 | COc1nccc2c(I)c(-c3ccc(C4(N)CCC4)cc3)oc12 [Example 127, 1-(4-(3-Iodo-7-methoxyfuro[2,3-c]pyridin-2-yl)phenyl)cyclobutanamine] |
| 1000 to 10000 | 1000 to 10000 | 100 to 1000 | NC1(c2ccc(-c3oc4c(=O)[nH]ccc4c3-c3ccccc3)cc2)CCC1 [Example 128, 2-(4-(1-Aminocyclobutyl)phenyl)-3-phenylfuro[2,3-d]pyridin-7(6H)-one] |
| 1000 to 10000 | 100 to 1000 | 100 to 1000 | Cn1ccc2c(-c3ccccc3)c(-c3ccc(C4(N)CCC4)cc3)oc2c1=O [Example 129, 2-(4-(1-Aminocyclobutyl)phenyl)-6-methyl-3-phenylfuro[2,3-c]pyridin-7(6H)-one] |
| > 10000 | 100 to 1000 | 1000 to 10000 | NC1(c2ccc(-c3oc4c(=O)n(CCF)ccc4c3-c3ccccc3)cc2)CCC1 [Example 130, 2-(4-(1-Aminocyclobutyl)phenyl)-6-(2-fluoroethyl)-3-phenylfuro[2,3-c]pyridin-7(6H)-one] |
| 1000 to 10000 | 100 to 1000 | 1000 to 10000 | NC1(c2ccc(-c3oc4c(=O)n(CCCO)ccc4c3-c3ccccc3)cc2)CCC1 [Example 131, 2-(4-(1-Aminocyclobutyl)phenyl)-6-(3-hydroxypropyl)-3-phenylfuro[2,3-c]pyridin-7(6H)-one] |
| > 10000 | 100 to 1000 | 100 to 1000 | COc1ncc(Br)c2c(-c3ccccc3)c(-c3ccc(C4(N)CCC4)cc3)oc12 [Example 132, 1-(4-(4-Bromo-7-methoxy-3-phenylfuro[2,3-c]pyridin-2-yl)phenyl)cyclobutanamine] |
| > 10000 | 1000 to 10000 | 1000 to 10000 | NC1(c2ccc(-c3oc4ccnc(-c5cn[nH]c5)c4c3-c3ccccc3)cc2)CCC1 [Example 133, 1-(4-(3-Phenyl-4-(1H-pyrazol-4-yl)furo[3,2-c]pyridin-2-yl)phenyl)cyclobutanamine] |
| > 10000 | 1000 to 10000 | 100 to 1000 | NC1(c2ccc(-c3oc4ncc(Cl)nc4c3-c3ccccc3)cc2)CCC1 [Example 134, 1-(4-(2-Chloro-7-phenylfuro[2,3-b]pyrazin-6-yl)phenyl)cyclobutanamine] |
| 100 to 1000 | 100 to 1000 | 100 to 1000 | NC1(c2ccc(-c3oc4ncc(-c5cn[nH]c5)nc4c3-c3ccccc3)cc2)CCC1 [Example 135, 1-(4-(7-Phenyl-2-(1H-pyrazol-4-yl)furo[2,3-b]pyrazin-6-yl)phenyl)cyclobutanamine] |
| > 10000 | 1000 to 10000 | 1000 to 10000 | Cn1cc(-c2cnc3oc(-c4ccc(C5(N)CCC5)cc4)c(-c4ccccc4)c3n2)cn1 [Example 136, 1-(4-(2-(1-Methyl-1H-pyrazol-4-yl)-7-phenylfuro[2,3-b]pyrazin-6-yl)phenyl)cyclobutanamine] |
| > 10000 | 1000 to 10000 | 100 to 1000 | Cn1nccc1-c1cnc2oc(-c3ccc(C4(N)CCC4)cc3)c(-c3ccccc3)c2n1 [Example 137, 1-(4-(2-(1-methyl-1H-pyrazol-5-yl)-7-phenylfuro[2,3-b]pyrazin-6-yl)phenyl)cyclobutanamine] |
